Laboratory results: patent US20230146455A1, “TREATMENT OF INFLAMMATORY DISEASES WITH PEPTIDES AND PHARMACEUTICAL COMPOSITIONS” (Yuyu Pharma, Inc., priority 2020, published 2023)
Where “and” joins values, the source holds several entries; their conditions need not be identical. Identical values can stand only once. Where a SMILES comes first, the peptide text is derived from it. [ ]: non-standard residue; d: D form. Hyp = O=C(O)[C@@H]1C[C@@H](O)CN1

System: IL-1 beta/IL-1F2
Assay: Example 9 Luminex, LPS hPBMCs: IL-1 beta/IL-1F2
Format: cell-based, human
Experimental: Treatment Human PBMCs were pretreated with YY-101, YDE-011 and YDE-043 or reference compound; Xiidra® at various concentration (ranging from 1 nM to 100 uM) for 2 h before stimulation. An equal volume of 0.5% DMSO was used as a vehicle control. Then, the cells were treated with LPS at 5 ug/ml. The supernatants from treated cells were harvested at 24 h and placed in a 96 well for Luminex cytokine & chemokine profiling using a Luminex 200 multiplex assay (Luminex; R&D system, USA).
The main study arm with triplicate wells per group in a 24-well plate: • 1. Blank • 2. PBMC: 0.5% DMSO • 3. PBMC+LPS (5 ug/ml) • 4. PBMC+YY-101 100 uM • 5. PBMC+YY-101 10 uM • 6. PBMC+YY-101 1 uM • 7. PBMC+YY-101 0.1 uM • 8. PBMC+YY-101 0.01 uM • 9. PBMC+LPS (5 ug/ml)+Xiidra®100 uM • 10. PBMC+LPS (5 ug/ml)+Xiidra® 10 uM • 11. PBMC+LPS (5 ug/ml)+Xiidra® 1 uM • 12. PBMC+LPS (5 ug/ml)+Xiidra®0.1 uM • 13. PBMC+LPS (5 ug/ml)+Xiidra®0.01 uM • 14. PBMC+LPS (5 ug/ml)+Xiidra®0.001 uM • 15. PBMC+LPS (5 ug/ml)+YY-101 100 uM • 16. PBMC+LPS (5 ug/ml)+YY-101 10 uM • 17. PBMC+LPS (5 ug/ml)+YY-101 1 uM • 18. PBMC+LPS (5 ug/ml)+YY-101 0.1 uM • 19. PBMC+LPS (5 ug/ml)+YY-101 0.01 uM • 20. PBMC+LPS (5 ug/ml)+YY-101 0.001 uM • 21. PBMC+LPS (5 ug/ml)+YDE-011 100 uM • 22. PBMC+LPS (5 ug/ml)+YDE-011 10 uM • 23. PBMC+LPS (5 ug/ml)+YDE-011 1 uM • 24. PBMC+LPS (5 ug/ml)+YDE-011 0.1 uM • 25. PBMC+LPS (5 ug/ml)+YDE-011 0.01 uM • 26. PBMC+LPS (5 ug/ml)+YDE-011 0.001 uM • 27. PBMC+LPS (5 ug/ml)+YDE-043 100 uM • 28. PBMC+LPS (5 ug/ml)+YDE-043 10 uM • 29. PBMC+LPS (5 ug/ml)+YDE-043 1 uM • 30. PBMC+LPS (5 ug/ml)+YDE-043 0.1 uM • 31. PBMC+LPS (5 ug/ml)+YDE-043 0.01 uM • 32. PBMC+LPS (5 ug/ml)+YDE-043 0.001 uM
Multiplex assay was used to measure 30 cytokines and chemokines. The 1:2, 1:10 and 1:200 diluted cell supernatant and serial dilution of the standard were dispensed into a 96 well plate at 50 ul/well. Then, the pre-mixed cocktail of antibody-coated magnetic beads was dispensed at 50 ul/well and incubated at room temperature for 2 h in a horizontal orbital microplate shaker at 800±500 rpm. The beads were washed using a magnetic device to prevent loss. The biotin-antibody was dispensed in 50 ul of each well and incubated at room temperature for 1 h in a shaker at 800±500 rpm. After washing, streptavidin-PE was added at 50 ul/well and incubated at room temperature for 30 min in a shaker under the same conditions. Finally, after washing, wash buffer (100 ul/well) was added to the plate and incubated in a shaker for 2 min. The Luminex™ 200 setting were set according to the manufacturer's protocol. The data was calculated with a standard five-parameter logistic nonlinear regression analysis of the data (xPonent software 4.2, USA). The levels of cytokine/chemokine are normalized to the live cell counts (1×10^5 cells/mL) and presented as concentrations per mL (pg/mL or ng/mL).

[1] = PBMC + LPS(5 ug/ml) + test article 0.001 uM, Mean
[2] = PBMC + LPS(5 ug/ml) + test article 0.001 uM, single replicates
[3] = PBMC + LPS(5 ug/ml) + test article 0.01 uM, Mean
[4] = PBMC + LPS(5 ug/ml) + test article 0.01 uM, single replicates
[5] = PBMC + LPS(5 ug/ml) + test article 0.1 uM, Mean
[6] = PBMC + LPS(5 ug/ml) + test article 0.1 uM, single replicates
[7] = PBMC + LPS(5 ug/ml) + test article 1 uM, Mean
[8] = PBMC + LPS(5 ug/ml) + test article 1 uM, single replicates
[9] = PBMC + LPS(5 ug/ml) + test article 10 uM, Mean
[10] = PBMC + LPS(5 ug/ml) + test article 10 uM, single replicates
[11] = PBMC + LPS(5 ug/ml) + test article 100 uM, Mean
[12] = PBMC + LPS(5 ug/ml) + test article 100 uM, single replicates

Row | SMILES | Concentration [1] | MFI [1] | conc/live cell [1] | Concentration [2] | MFI [2] | conc/live cell [2] | Concentration [3] | MFI [3] | conc/live cell [3] | Concentration [4] | MFI [4] | conc/live cell [4] | Concentration [5] | MFI [5] | conc/live cell [5] | Concentration [6] | MFI [6] | conc/live cell [6] | Concentration [7] | MFI [7] | further results
1 | CC(C)C[C@H](NC(=O)CNC(=O)[C@H](CC(C)C)NC(=O)[C@H](CCC(N)=O)NC(=O)CNC(=O)[C@@H]1C[C@@H](O)CN1)C(=O)N[C@@H](C)C(=O)NCC(=O)N1CCC[C@H]1C(=O)N[C@@H](CCCCN)C(=O)O [YDE-011] (H-[Hyp]GQLGLAGPK-OH) | 6481.9 pg/mL | 1671.0 | 1225.5 pg/10^5 | 6498.5 pg/mL and 6544.6 pg/mL and 6402.7 pg/mL | 1675.5 and 1688.0 and 1649.5 | 1444.1 pg/10^5 and 1128.4 pg/10^5 and 1103.9 pg/10^5 | 6567.3 pg/mL | 1694.2 | 1128.7 pg/10^5 | 6557.5 pg/mL and 6476.4 pg/mL and 6668.1 pg/mL | 1691.5 and 1669.5 and 1721.5 | 1057.7 pg/10^5 and 1269.9 pg/10^5 and 1058.4 pg/10^5 | 6345.6 pg/mL | 1634.0 | 1115.2 pg/10^5 | 6305.1 pg/mL and 6376.9 pg/mL and 6354.8 pg/mL | 1623.0 and 1642.5 and 1636.5 | 955.3 pg/10^5 and 1275.4 pg/10^5 and 1114.9 pg/10^5 | 6587.0 pg/mL | 1699.5 | conc/live cell [7]: 1314.4 pg/10^5; Concentration [8]: 6553.8 pg/mL and 6454.2 pg/mL and 6753.1 pg/mL; MFI [8]: 1690.5 and 1663.5 and 1744.5; conc/live cell [8]: 1191.6 pg/10^5 and 1344.6 pg/10^5 and 1406.9 pg/10^5; Concentration [9]: 6933.0 pg/mL; MFI [9]: 1793.2; conc/live cell [9]: 1319.4 pg/10^5; Concentration [10]: 7010.0 pg/mL and 6782.6 pg/mL and 7006.3 pg/mL; MFI [10]: 1814.0 and 1752.5 and 1813.0; conc/live cell [10]: 1298.1 pg/10^5 and 1169.4 pg/10^5 and 1490.7 pg/10^5; Concentration [11]: 8675.0 pg/mL; MFI [11]: 2260.0; conc/live cell [11]: 1430.0 pg/10^5; Concentration [12]: 8497.8 pg/mL and 8918.4 pg/mL and 8608.8 pg/mL; MFI [12]: 2213.0 and 2324.5 and 2242.5; conc/live cell [12]: 1393.1 pg/10^5 and 1462.0 pg/10^5 and 1434.8 pg/10^5
2 | CC(C)C[C@H](NC(=O)[C@H](CCC(N)=O)NC(=O)CNC(=O)[C@@H]1C[C@@H](O)CN1)C(=O)NCC(=O)O [YDE-043] (H-[Hyp]GQLG-OH; N-terminus and C-terminus assumed) | 6632.8 pg/mL | 1711.8 | 1343.9 pg/10^5 | 6369.5 pg/mL and 7037.7 pg/mL and 6491.1 pg/mL | 1640.5 and 1821.5 and 1673.5 | 1447.6 pg/10^5 and 1173.0 pg/10^5 and 1411.1 pg/10^5 | 6569.2 pg/mL | 1694.7 | 1253.9 pg/10^5 | 6432.1 pg/mL and 6655.2 pg/mL and 6620.2 pg/mL | 1657.5 and 1718.0 and 1708.5 | 1429.4 pg/10^5 and 1008.4 pg/10^5 and 1324.0 pg/10^5 | 6324.2 pg/mL | 1628.2 | 1172.5 pg/10^5 | 6049.3 pg/mL and 6384.2 pg/mL and 6539.0 pg/mL | 1553.5 and 1644.5 and 1686.5 | 1209.9 pg/10^5 and 1140.0 pg/10^5 and 1167.7 pg/10^5 | 6195.3 pg/mL | 1593.2 | conc/live cell [7]: 1173.7 pg/10^5; Concentration [8]: 6303.2 pg/mL and 5942.7 pg/mL and 6340.0 pg/mL; MFI [8]: 1622.5 and 1524.5 and 1632.5; conc/live cell [8]: 1086.8 pg/10^5 and 1238.1 pg/10^5 and 1196.2 pg/10^5; Concentration [9]: 6556.9 pg/mL; MFI [9]: 1691.3; conc/live cell [9]: 1214.7 pg/10^5; Concentration [10]: 6382.4 pg/mL and 6634.9 pg/mL and 6653.4 pg/mL; MFI [10]: 1644.0 and 1712.5 and 1717.5; conc/live cell [10]: 1227.4 pg/10^5 and 1228.7 pg/10^5 and 1188.1 pg/10^5; Concentration [11]: 8209.5 pg/mL; MFI [11]: 2135.8; conc/live cell [11]: 1304.8 pg/10^5; Concentration [12]: 8744.5 pg/mL and 7674.4 pg/mL; MFI [12]: 2278.5 and 1993.0; conc/live cell [12]: 1410.4 pg/10^5 and 1199.1 pg/10^5
